The source of these data is patent publication US20060094059A1, “Methods for identifying new drug leads and new therapeutic uses for known drugs” (Odyssey Thera, Inc., priority 2004, published 2006).

Counter-ions that a name gives are not always drawn. Like-named read-outs stand apart in the source and are kept apart here.

The subject of test [1] is non-small cell lung carcinoma (A549) cells. The test can be described thus: MTT proliferation assay, NSCLC. Conditions: Homo sapiens, Tumor Cell NSCLC (A549), 120 hours, read-out: Anti-proliferative IC-50. Format: cell-based, Human. The protocol:
(§1) Cells were maintained in various media as follows: A549, LoVo and PC-3 (Ham's F12K medium with 2 mM L-glutamine and 1.5 g/L sodium bicarbonate), MIA PaCa-2 (Dulbecco's modified Eagle's medium with 4 mM L-glutamine and 4.5 g/L glucose), U87-MG (MEM+Earle's BSS). Medium for each cell line was supplemented with 10% FBS and […] Penecillin/Streptomycin. All cells were grown in incubators set at 37° C., 5% CO2. Thiazolyl Blue Tetrazolium Bromide (MTT) based proliferation assays were performed to assess the anti-proliferative activities of the compounds on these cells. Cells were seeded in 96 well plates at a density of 750 cells/well 24 hours prior to compound treatment. The cells were incubated with varying concentrations of compounds for 120 hours. […] Drug treatment was performed in 5 replicate wells. Background absorbance was established by wells containing medium but no cells. Vehicle (DMSO) only was used as control. MTT (Sigma-Aldrich, St. Louis, Mo.) was added to each well at a final concentration of 0.5 mg/ml. Following a 2 hour incubation at 37° C., medium in the wells was replaced with 0.15 ml DMSO. The plates were agitated for 15 min using a microtiter plate shaker.
(In general: Tetrazolium dyes change colour on reduction, which living cells bring about.)

Test [2] deals with colon adenocarcinoma (LoVo) cells. Description: MTT proliferation assay, colon. Conditions: Homo sapiens, Tumor Cell Colon (LoVo), 120 hours, read-out: Anti-proliferative IC-50. In kind it is cell-based, Human. As to the method:
as §1

Test [3] has as its system pancreatic carcinoma (MIA PaCa-2) cells. The test can be described thus: MTT proliferation assay, pancreatic. In kind it is cell-based, Human. Conditions: Homo sapiens, Tumor Cell Pancreatic (MIA PaCa-2), 120 hours, read-out: Anti-proliferative IC-50. The protocol:
as §1

Test [4] deals with prostate adenocarcinoma (PC-3) cells. Description: MTT proliferation assay, prostate. Format: cell-based, Human. Conditions: for IC50: Homo sapiens, Tumor Cell Prostate (PC-3), MTT, 120 hours, read-out: Anti-proliferative IC-50. As to the method: (§2) We used these methods to mine the known pharmacopeia for drugs with previously-unsuspected activity against cancer-related pathways. […] Hits from our cell-based screens were tested for antiproliferative activity in up to 5 different human tumor cell lines, as follows. First, drugs with significant activity in the cellular screen(s) were tested for their ability to block proliferation of a human tumor cell line (PC-3) at an initial concentration of 10 micromolar. For drugs with antiproliferative activity in PC-3 cells, dose-response curves to determine the IC50 for antiproliferative activity and additional tumor cell lines were tested to determine the breadth of activity. Methods for assessing the antiproliferative activity of the cell-based drug ‘hits’ are described below.
as §1

For test [5], the system named is CDC42:PAK4 complexes. Description: Protein-fragment complementation assay CDC42:PAK4. In kind it is cell-based, human. Conditions: for level of CDC42:PAK4 complexes (intensity of the fluorescence): FIG. 3F, compared with the vehicle alone. The source says:
(§3) To construct dynamic assays for protein-protein complexes, we used a protein-fragment complementation assay strategy (PCAs) in intact human cells. (A variety of other suitable assays, and reporter options, are described in detail below.) The principle of PCA is that complementary polypeptide fragments (F[1] and F[2]) of a reporter protein or enzyme will fold into an active form only if fused to two proteins which interact and bring the complementary fragments of the reporter protein into proximity. Reconstitution of the fragments of the reporter protein generates a fluorescent signal that can be quantified in intact cells, and the amount of the signal is proportional to the amount of the protein-protein complex used in constructing the assay. Given a suitable reporter type, the subcellular location of the complex can also be measured.
(§4) Reporter fragments for PCA were generated by oligonucleotide synthesis (Blue Heron Biotechnology, Bothell, Wash.), starting with the sequence of yellow fluorescent protein (YFP). First, oligonucleotides coding for polypeptide fragments YFP[1]and YFP[2] […] Next, PCR mutagenesis was used to generate the mutant fragments IFP[1] and IFP[2]. The IFP[1] fragment corresponds to YFP[1]-(F46L, F64L, M153T) and the IFP[2] fragment corresponds to YFP[2]-(V163A, S175G). […] The YFP[1], YFP[2], IFP[1] and IFP[2] fragments were amplified by PCR to incorporate restriction sites and a linker sequence, described below, in configurations that would allow fusion of a gene of interest to either the 5′- or 3′-end of each reporter fragment. The reporter-linker fragment cassettes were subcloned into a mammalian expression vector (pcDNA3.1Z, Invitrogen) that had been modified to incorporate the replication origin (oriP) of the Epstein Barr virus (EBV). […] Additionally, these vectors still retain the SV40 origin, allowing for episomal expression in cell lines expressing the SV40 large T antigen (e.g. HEK293T, Jurkat or COS).
(§5) PCA fusion constructs were prepared for a proteins known to participate in cellular pathways that have been described in the scientific literature as being linked to cancer. The selection of protein-protein complexes used, and the rationale for their use, is provided in Table 1 and the gene identifiers for the cDNAs used in assay construction are provided in Table 2. The full coding sequence for each gene of interest was amplified by PCR from a sequence-verified full-length cDNA. Resulting PCR products were column purified (Centricon), digested with appropriate restriction enzymes to allow directional cloning, and fused in-frame to either the 5′ or 3′-end of YFP[1], YFP[2], IFP[1] or IFP[2] through a linker encoding a flexible 10 amino acid peptide (Gly.Gly.Gly.Gly.Ser)2. […] Recombinants in the host strains DH5-alpha (Invitrogen, Carlsbad, Calif.) or XL1 Blue MR (Stratagene, La Jolla, Calif.) were screened by colony PCR, and clones containing inserts of the correct size were subjected to end sequencing to confirm the presence of the gene of interest and in-frame fusion to the appropriate reporter fragment. A subset of fusion constructs were selected for full-insert sequencing by primer walking. DNAs were isolated using Qiagen MaxiPrep kits (Qiagen, Chatsworth, Calif.). PCR was used to assess the integrity of each fusion construct, by combining the appropriate gene-specific primer with a reporter-specific primer to confirm that the correct gene-fusion was present and of the correct size with no internal deletions.
(§6) HEK293 cells were maintained in MEM alpha medium (Invitrogen) supplemented with 10% FBS (Gemini Bio-Products), 1% penicillin, and 1% streptomycin, and grown in a 37° C. incubator equilibrated to 5% CO2. […] Up to 100 ng of the complementary YFP or IFP-fragment fusion vectors were co-transfected using Fugene 6 (Roche) according to the manufacturer's protocol.

The test system of test [6] is glioblastoma (U-87 MG) cells. Description: MTT proliferation assay, glioblastoma. In kind it is cell-based. Conditions: Homo sapiens, Tumor Cell Glioblastoma (U-87 MG), 120 hours, read-out: Anti-proliferative IC-50. The protocol: as §1
Test [7] deals with human tumor cell lines. The test can be described thus: MTT proliferation assay and phase contrast images, cell line not given (FIGS. 5-10). In kind it is cell-based. Conditions: treated cells vs. DMSO control, cell line not named. The protocol:
as §2
Cells were maintained in various media as follows: A549, LoVo and PC-3 (Ham's F12K medium with 2 mM L-glutamine and 1.5 g/L sodium bicarbonate), MIA PaCa-2 (Dulbecco's modified Eagle's medium with 4 mM L-glutamine and 4.5 g/L glucose), U87-MG (MEM+Earle's BSS). Medium for each cell line was supplemented with 10% FBS and […] Penecillin/Streptomycin. All cells were grown in incubators set at 37° C., 5% CO2. Thiazolyl Blue Tetrazolium Bromide (MTT) based proliferation assays were performed to assess the anti-proliferative activities of the compounds on these cells. Cells were seeded in 96 well plates at a density of 750 cells/well 24 hours prior to compound treatment. The cells were incubated with varying concentrations of compounds for 120 hours. Compound concentrations range from 0.03 to 100 microM (half log increments) except for alpha-Tomatine (0.001-100 microM, half log increments), Neriifolin (0.0002-100 microM) and Peruvoside (0.01-100 microM). Drug treatment was performed in 5 replicate wells. Background absorbance was established by wells containing medium but no cells. Vehicle (DMSO) only was used as control. MTT (Sigma-Aldrich, St. Louis, Mo.) was added to each well at a final concentration of 0.5 mg/ml. Following a 2 hour incubation at 37° C., medium in the wells was replaced with 0.15 ml DMSO. The plates were agitated for 15 min using a microtiter plate shaker. […] Mean absorbance values were calculated from 5 replicate wells of each drug treatment following subtraction of background absorbance from blank samples and plotted as a percentage of control.

The test system of test [8] is Ras:Raf complexes. Description: Protein-fragment complementation assay H-Ras:Raf. Conditions: for Assay activity: hit in Ras/Raf assay, drugs screened at 10 micromolar; for level of the Ras:Raf complexes (intensity of the fluorescence) / subcellular location of the Ras:Raf complexes: FIG. 3E; for level of the Ras:Raf complexes (intensity of the fluorescence): compared with the vehicle alone; for subcellular location of the Ras:Raf complexes: in control cells complexes localized at the cell membrane. Format: cell-based, human.
Source text: as §3, §4, §5, §6

The mark [9] stands for this setting: hit in CDC42/PAK4 assay, drugs screened at 10 micromolar.

As for `CCCSc1ccc2nc(NC(=O)OC)[nH]c2c1` [Albendazole], the IC50 in test [1] amounted to 0.24 µM; in test [2] it was 0.14 µM; in test [3], 0.18 µM; in test [4], 0.3 µM. In test [5], the Assay activity entry was “CDC42/PAK4”.

With `CC(C)COCC(CN(Cc1ccccc1)c1ccccc1)N1CCCC1` (stereo not drawn) [Bepridil], the figures for the IC50 in test [2], in test [4] and in test [6] were 3.68 µM, 8.69 µM and 5.75 µM, respectively. Also, the “level of CDC42:PAK4 complexes (intensity of the fluorescence)” value in test [5] was “decrease in the level”. In addition, the Assay activity entry in test [5] (setting [9]) was “CDC42/PAK4”.

As to `C(=C\c1ccccc1)/CN1CCN(C(c2ccccc2)c2ccccc2)CC1` [Cinnarizine], in test [7], the “cell count (phase contrast images)” value was “decreased the cell count”.

In the case of `CCN(CC)CCOc1ccc(C(=C(Cl)c2ccccc2)c2ccccc2)cc1` [Clomiphene], the Assay activity result in test [8] is on record as “Ras/Raf”.

On to `CNCCCN1c2ccccc2CCc2ccccc21` [Desipramine], for which, in test [2], the IC50 was 10.6 µM. In test [4], the IC50 is 14.6 µM. Also, the IC50 in test [6] is 6.9 µM. Further, in test [8], the “level of the Ras:Raf complexes (intensity of the fluorescence)” value (from here on “level of the Ras:Raf complexes”) is on record as “decrease in the level”, the “subcellular location of the Ras:Raf complexes” value (from here on “subcellular location”) is given as “redistribution of the complexes to an intracellular structure” and the Assay activity result is “Ras/Raf”.

Consider `Oc1ccc(Cl)cc1Cc1cc(Cl)ccc1O` [Dichlorophene], for which, in test [8], the Assay activity result is recorded as “Ras/Raf”.

For `CN1C[C@H](CNC(=O)OCc2ccccc2)C[C@@H]2c3cccc4c3c(cn4C)C[C@H]21` [Metergoline], the IC50 in test [1] is 5.4 µM; in test [2], 6.97 µM; in test [3], 3.35 µM; in test [4], 6.19 µM; in test [6] it was 4.6 µM. Also, the “level of CDC42:PAK4 complexes (intensity of the fluorescence)” value in test [5] is reported as “decrease in the level”. Also, in test [5] (setting [9]), the Assay activity entry is given as “CDC42/PAK4”. For the same molecule, the “level of the Ras:Raf complexes” value in test [8] was “decrease in the level”. Also, the “subcellular location” value in test [8] was “redistribution of the complexes to an intracellular structure”.

Consider `CN(C)CCCN1c2ccccc2Sc2ccccc21` [Promazine], for which the IC50 is 13.9 µM in test [1]; 13.9 µM in test [2]; 5.13 µM in test [3]; 13.9 µM in test [4]; 16.4 µM in test [6]. Besides, in test [8], the “level of the Ras:Raf complexes” value is “decrease in the level”. Moreover, the “subcellular location” value in test [8] is “redistribution of the complexes to an intracellular structure”. Besides, the Assay activity result in test [8] is on record as “Ras/Raf”.

As to `C[n+]1cc2c3c(ccc2c2ccc4cc5c(cc4c21)OCO5)OCO3` [Sanguinarine], the IC50 in test [1] is 0.78 µM; in test [2], 0.81 µM; in test [3], 0.18 µM; in test [4], 0.33 µM; in test [6] it was 0.34 µM.

As to `C[C@H]1CC[C@]2(NC1)O[C@H]1C[C@H]3[C@@H]4CC[C@H]5C[C@@H](O[C@@H]6O[C@H](CO)[C@H](O[C@@H]7O[C@H](CO)[C@@H](O)[C@H](O[C@@H]8OC[C@@H](O)[C@H](O)[C@H]8O)[C@H]7O[C@@H]7O[C@H](CO)[C@@H](O)[C@H](O)[C@H]7O)[C@H](O)[C@H]6O)CC[C@]5(C)[C@H]4CC[C@]3(C)[C@H]1[C@@H]2C` [Tomatine], the IC50 stood at 0.092 µM in test [1], 0.097 µM in test [2], 0.131 µM in test [3] and 0.09 µM in test [4]. Moreover, in test [5] (setting [9]), the Assay activity result is given as “Cdc42/PAK4”.

`Cc1cccc(Nc2cc(Cl)nc(SCC(=O)O)n2)c1C` [WY-14643]: in test [4] (FIG. 4, compared to the DMSO control), the “proliferation of PC-3 cells (MTT assay)” value was “no effect on proliferation”.

On to `Clc1ccccc1C(c1ccccc1)(c1ccccc1)n1ccnc1` [clotrimazole], for which the “cell count (phase contrast images)” value in test [7] was “decreased the cell count”.

Regarding `COC(=O)[C@H]1[C@H]2C[C@H]3c4[nH]c5cc(OC)ccc5c4CCN3C[C@H]2C[C@@H](OC(=O)c2cc(OC)c(OC)c(OC)c2)[C@@H]1OC` [isoreserpine], the “cell count (phase contrast images)” value in test [7] was “decreased the cell count”.

Regarding `CC/C(=C(\c1ccccc1)c1ccc(OCCN(C)C)cc1)c1ccccc1` [tamoxifen citrate], in test [8], the “level of the Ras:Raf complexes” value is “decrease in the level” and the “subcellular location” value was “redistribution of the complexes to an intracellular structure”.
